Measurements published in patent US20250197375A1, “PYRIMIDINES AND METHODS OF THEIR USE” (Kineta, Inc., priority 2021, published 2025).

Assays:
[1] = biological target: full-length human PIKFYVE (Homo sapiens (Human), UniProt Q9Y2I7, L932S/Q1183K/Q995L/S1033A/S696N/T998S); experiment: PIKfyve Biochemical Assay (ADP-Glo Kinase assay, GST-PIKFYVE); settings: ADP-Glo with full-length PIKfyve; read-out: PIKfyve IC50
Description: PIKfyve Biochemical Assay. The biochemical PIKFyve inhibition assays were run by Cama Biosciences according to proprietary methodology based on the Promega ADP-Glo™ Kinase assay. […] GST-PIKFYVE was purified by using glutathione sepharose chromatography and used in an ADP-Glo™ Kinase assay (Promega). Reactions were set up by adding the test compound solution, substrate solution, ATP solution and kinase solution, each at 4× final concentrations. Reactions were prepared with assay buffer (50 mM MOPS, 1 mM DTT, pH7.2), mixed, and incubated in black 384 well polystyrene plates for 1 hour at room temperature. ADP-Glo™ reagent was then added for 40 minutes, followed by kinase detection reagent for an additional 40 minutes. The kinase activity was evaluated by detecting relative light units on a luminescence plate reader. Samples were run in duplicate from 10 μM to 3 nM. […] IC50 values were calculated from concentration versus percent inhibition curves by fitting to a four-parameter logistic curve.
The biochemical PIKFyve inhibition assays were run by Cama Biosciences according to proprietary methodology based on the Promega ADP-Glo™ Kinase assay. […] GST-PIKFYVE was purified by using glutathione sepharose chromatography and used in an ADP-Glo™ Kinase assay (Promega).
Reactions were set up by adding the test compound solution, substrate solution, ATP solution and kinase solution, each at 4× final concentrations. Reactions were prepared with assay buffer (50 mM MOPS, 1 mM DTT, pH7.2), mixed, and incubated in black 384 well polystyrene plates for 1 hour at room temperature. ADP-Glo™ reagent was then added for 40 minutes, followed by kinase detection reagent for an additional 40 minutes. The kinase activity was evaluated by detecting relative light units on a luminescence plate reader. Samples were run in duplicate from 10 uM to 3 nM. […] IC50 values were calculated from concentration vs % inhibition curves by fitting to a four-parameter logistic curve.

FAB1 TDP-43 yeast strain = experiment: Propidium iodide viability assay in FAB1 TDP-43 control yeast strain; format: cell-based; settings: FAB1 TDP-43 yeast model
Description: Viability Assay. A control yeast strain with the wild-type yeast FAB1 gene and TDP-43 (“FAB1 TDP-43”, carries empty pAG416 plasmid), and the “PIKFYVE TDP-43” yeast strain, were assessed for toxicity using a propidium iodide viability assay. Both yeast strains were transferred from solid CSM-ura/2% glucose agar plates into 3 mL of liquid CSM-ura/2% glucose media for 6-8 hours at 30° C. with aeration. Yeast cultures were then diluted to an optical density at 600 nm wavelength (OD600) of 0.005 in 3 mL of CSM-ura/2% raffinose and grown overnight at 30° C. with aeration to an OD600 of 0.3-0.8. Log-phase overnight cultures were diluted to OD600 of 0.005 in CSM-ura containing either 2% raffinose or galactose and 150 µL dispensed into each well of a flat bottom 96-well plates. Compounds formulated in 100% dimethyl sulfoxide (DMSO) were serially diluted in DMSO and 1.5 µL diluted compound transferred to the 96-well plates using a multichannel pipet. Wells containing DMSO alone were also evaluated as controls for compound effects. Tested concentrations ranged from 15 µM to 0.11 µM. Cultures were immediately mixed to ensure compound distribution and covered plates incubated at 30° C. for 24 hours in a stationary, humified incubator.
(§1) Upon the completion of incubation, cultures were assayed for viability using propidium iodide (PI) to stain for dead/dying cells. A working solution of PI was made where, for each plate, 1 µL of 10 mM PI was added to 10 mL of CSM-ura (raffinose or galactose). The final PI solution (50 µL/well) was dispensed into each well of a new round bottom 96-well plate. The overnight 96-well assay plate was then mixed with a multichannel pipet and 50 µL transferred to the PI-containing plate. This plate was then incubated for 30 minutes at 30° C. in the dark. A benchtop flow cytometer (Miltenyi MACSquant) was then used to assess red fluorescence (B2 channel), forward scatter, and side scatter (with following settings: gentle mix, high flow rate, fast measurement, 10,000 events). Intensity histograms were then gated for “P-positive” or “PI-negative” using the raffinose and galactose cultures treated with DMSO as controls. The DMSO controls for raffinose or galactose-containing cultures were used to determine the window of increased cell death and this difference set to 100. All compounds were similarity gated and then compared to this maximal window to establish the percent reduction in PI-positive cells.

[2] = system: PIKFYVE TDP-43 yeast strain; experiment: Propidium iodide viability assay in PIKFYVE TDP-43 yeast strain; format: cell-based; settings: PIKFYVE TDP-43 yeast model
Description: Generation of TDP-43 yeast model expressing human PIKfyve. Human PIKFYVE (“entry clone”) was cloned into pAG416GPDccdB (“destination vector”) according to standard Gateway cloning protocols (Invitrogen, Life Technologies). […] Lithium acetate/polyethylene glycol-based transformation was used to introduce the above PIKFYVE plasmid into a BY4741 yeast strain auxotrophic for the ura3 gene and deleted for two transcription factors that regulate the xenobiotic efflux pumps, a major efflux pump, and FAB1, the yeast ortholog of PIKFYVE (MATa, snq2::KILeu2; pdr3::Klura3; pdr1::NATMX; fab1::G418^R, his3; leu2; ura3; met15; LYS2+) (FIG. 2). Transformed yeast were plated on solid agar plates with complete synthetic media lacking uracil (CSM-ura) and containing 2% glucose. Individual colonies harboring the control or PIKFYVE TDP-43 plasmids were recovered. A plasmid containing wild-type TDP-43 under the transcriptional control of the GAL1 promoter and containing the hygromycin-resistance gene as a selectable marker was transformed into the fab1::G418^R pAG416GPD-PIKFYVE yeast strain (FIG. 1). Transformed yeast were plated on CSM-ura containing 2% glucose and 200 µg/mL G418 after overnight recovery in media lacking antibiotic. Multiple independent isolates were further evaluated for cytotoxicity and TDP-43 expression levels.
Viability Assay. A control yeast strain with the wild-type yeast FAB1 gene and TDP-43 (“FAB1 TDP-43”, carries empty pAG416 plasmid), and the “PIKFYVE TDP-43” yeast strain, were assessed for toxicity using a propidium iodide viability assay. Both yeast strains were transferred from solid CSM-ura/2% glucose agar plates into 3 mL of liquid CSM-ura/2% glucose media for 6-8 hours at 30° C. with aeration. […] Log-phase overnight cultures were diluted to OD600 of 0.005 in CSM-ura containing either 2% raffinose or galactose and 150 µL dispensed into each well of a flat bottom 96-well plates. […] Wells containing DMSO alone were also evaluated as controls for compound effects. […] Cultures were immediately mixed to ensure compound distribution and covered plates incubated at 30° C. for 24 hours in a stationary, humified incubator.
as §1

full-length human PIKFYVE, sequence (Q9Y2I7 whole entry S696N/L932S/Q995L/T998S/S1033A/Q1183K): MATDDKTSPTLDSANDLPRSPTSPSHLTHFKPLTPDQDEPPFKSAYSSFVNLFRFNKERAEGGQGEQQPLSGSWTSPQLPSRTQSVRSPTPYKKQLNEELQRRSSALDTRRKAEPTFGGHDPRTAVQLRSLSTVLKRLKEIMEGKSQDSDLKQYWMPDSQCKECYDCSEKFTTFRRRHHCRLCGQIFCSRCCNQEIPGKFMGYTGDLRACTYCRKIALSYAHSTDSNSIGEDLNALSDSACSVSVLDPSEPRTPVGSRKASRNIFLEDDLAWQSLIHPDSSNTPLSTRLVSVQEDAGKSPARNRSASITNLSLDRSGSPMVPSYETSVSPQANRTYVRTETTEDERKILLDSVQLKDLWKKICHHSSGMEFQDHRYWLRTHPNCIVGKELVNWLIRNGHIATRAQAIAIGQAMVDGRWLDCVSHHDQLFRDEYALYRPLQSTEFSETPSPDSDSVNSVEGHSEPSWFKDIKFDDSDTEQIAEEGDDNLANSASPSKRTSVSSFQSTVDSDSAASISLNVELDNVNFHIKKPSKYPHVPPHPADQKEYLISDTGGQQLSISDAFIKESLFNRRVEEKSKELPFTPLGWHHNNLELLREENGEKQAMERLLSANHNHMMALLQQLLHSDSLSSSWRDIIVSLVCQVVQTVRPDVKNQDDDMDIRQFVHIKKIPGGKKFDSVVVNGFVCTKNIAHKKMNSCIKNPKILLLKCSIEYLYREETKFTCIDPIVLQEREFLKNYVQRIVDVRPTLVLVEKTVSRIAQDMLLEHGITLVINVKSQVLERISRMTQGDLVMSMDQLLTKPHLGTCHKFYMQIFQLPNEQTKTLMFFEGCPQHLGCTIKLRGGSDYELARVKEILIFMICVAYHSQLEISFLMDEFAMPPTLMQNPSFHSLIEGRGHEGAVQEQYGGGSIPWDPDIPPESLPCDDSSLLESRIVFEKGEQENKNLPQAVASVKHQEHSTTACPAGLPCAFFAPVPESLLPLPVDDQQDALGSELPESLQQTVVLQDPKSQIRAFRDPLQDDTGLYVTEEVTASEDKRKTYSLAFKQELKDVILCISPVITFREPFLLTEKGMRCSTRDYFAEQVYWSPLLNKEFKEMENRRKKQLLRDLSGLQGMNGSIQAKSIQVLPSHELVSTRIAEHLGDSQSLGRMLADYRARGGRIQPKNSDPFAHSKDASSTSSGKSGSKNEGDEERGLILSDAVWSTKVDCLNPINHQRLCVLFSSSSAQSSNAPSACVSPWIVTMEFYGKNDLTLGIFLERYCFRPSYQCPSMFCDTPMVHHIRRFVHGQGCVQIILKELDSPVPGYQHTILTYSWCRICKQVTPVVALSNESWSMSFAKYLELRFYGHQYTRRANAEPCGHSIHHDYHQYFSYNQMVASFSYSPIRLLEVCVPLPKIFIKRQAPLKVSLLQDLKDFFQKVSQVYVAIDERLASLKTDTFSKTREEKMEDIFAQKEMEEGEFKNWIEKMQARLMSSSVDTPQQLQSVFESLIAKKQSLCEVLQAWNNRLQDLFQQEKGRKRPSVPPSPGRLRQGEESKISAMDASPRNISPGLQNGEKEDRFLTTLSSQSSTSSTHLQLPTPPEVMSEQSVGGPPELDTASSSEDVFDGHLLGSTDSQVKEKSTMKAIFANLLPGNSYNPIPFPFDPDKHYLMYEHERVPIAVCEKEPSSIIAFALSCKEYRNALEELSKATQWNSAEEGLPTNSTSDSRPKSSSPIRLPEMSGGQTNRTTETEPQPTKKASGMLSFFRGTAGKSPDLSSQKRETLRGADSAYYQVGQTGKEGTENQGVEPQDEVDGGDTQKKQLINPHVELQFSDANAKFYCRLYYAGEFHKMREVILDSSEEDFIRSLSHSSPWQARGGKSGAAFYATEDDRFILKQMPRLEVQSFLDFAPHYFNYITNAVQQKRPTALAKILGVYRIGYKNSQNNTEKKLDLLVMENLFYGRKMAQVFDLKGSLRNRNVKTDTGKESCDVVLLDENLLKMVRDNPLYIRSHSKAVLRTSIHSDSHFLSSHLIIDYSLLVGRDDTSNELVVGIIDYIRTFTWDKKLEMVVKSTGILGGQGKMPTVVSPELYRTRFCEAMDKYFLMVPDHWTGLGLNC

| IC50 [1] | SMILES | FAB1 TDP-43 (active/inactive) (FAB1 TDP-43 yeast strain) | PIKfyve TDP-43 (active/inactive) [2] |
| --- | --- | --- | --- |
| > 10 µM | N#Cc1cc(N2CCOCC2)n2nc(-c3ccncc3)cc2n1 | Inactive | Inactive |
|  | Cc1cccc(/C=N/Nc2nc(N3CCOCC3)c3nc(-c4ccncc4)n(C)c3n2)c1 [drawing 192] | Inactive | Active |
